# Assay results as given in ChEMBL document CHEMBL1137006, “Optimization of the central linker of dicationic bis-benzimidazole anti-MRSA and anti-VRE agents” (2009).
# Assays:
# Assay type in all cases: functional
# Enterococcus faecium = assay: Antibacterial activity against vancomycin-resistant Enterococcus faecium ATCC 700221 by NCCLS method
# Enterococcus faecalis = assay: Antibacterial activity against vancomycin-resistant Enterococcus faecalis ATCC 51575 by NCCLS method
# Bacteroides fragilis = assay: Antibacterial activity against Bacteroides fragilis ATCC 23745 by NCCLS method
# Bacillus cereus = assay: Antibacterial activity against Bacillus cereus ATCC 11778 by NCCLS method
# [1] = tested on: Staphylococcus epidermidis; assay: Antibacterial activity against methicillin-resistan Staphylococcus epidermidis ATCC 51625 by NCCLS method
# Clostridium perfringens = assay: Antibacterial activity against Clostridium perfringens ATCC 10388 by NCCLS method
# Staphylococcus aureus [2] = assay: Antibacterial activity against Staphylococcus aureus ATCC 29213 by NCCLS method
# Streptococcus pneumoniae = assay: Antibacterial activity against Streptococcus pneumoniae ATCC 6301 by NCCLS method
# Staphylococcus aureus [3] = assay: Antibacterial activity against multi-drug resistant Staphylococcus aureus BAA-39 by NCCLS method
# Staphylococcus aureus [4] = assay: Antibacterial activity against methicillin-resistan Staphylococcus aureus ATCC 33591 by NCCLS method
# [5] = tested on: Staphylococcus epidermidis; assay: Antibacterial activity against Staphylococcus epidermidis ATCC 12228 by NCCLS method
# Bacillus subtilis = assay: Antibacterial activity against Bacillus subtilis ATCC 23857 by NCCLS method
SMILES,MIC (Enterococcus faecium) [µg/mL],MIC (Enterococcus faecalis) [µg/mL],MIC (Bacteroides fragilis) [µg/mL],MIC (Bacillus cereus) [µg/mL],MIC [1] [µg/mL],MIC (Clostridium perfringens) [µg/mL],MIC (Staphylococcus aureus [2]) [µg/mL],MIC (Streptococcus pneumoniae) [µg/mL],MIC (Staphylococcus aureus [3]) [µg/mL],MIC (Staphylococcus aureus [4]) [µg/mL],MIC [5] [µg/mL],MIC (Bacillus subtilis) [µg/mL]
CC(C)NC(=N)c1ccc2[nH]c(-c3ccc(COc4ccc(-c5nc6cc(C(=N)NC(C)C)ccc6[nH]5)cc4)cc3)nc2c1,0.12,1,32,0.12,0.25,16,1,≤ 0.06,4,0.5,≤ 0.06,0.12
CC(C)NC(=N)c1ccc2[nH]c(-c3ccc([C@@H]4C[C@H]4c4ccc(-c5nc6cc(C(=N)NC(C)C)ccc6[nH]5)cc4)cc3)nc2c1,0.12,0.5,0.5,0.12,0.12,0.25,1,≤ 0.06,0.5,0.25,≤ 0.06,0.12
CC(C)NC(=N)c1ccc2[nH]c(-c3ccc(C#Cc4ccc(-c5nc6cc(C(=N)NC(C)C)ccc6[nH]5)cc4)cc3)nc2c1,0.5,32,> 32,0.5,0.25,4,2,,4,2,0.12,4
CC(C)NC(=N)c1ccc2[nH]c(-c3ccc(N(C)c4ccc(-c5nc6cc(C(=N)NC(C)C)ccc6[nH]5)cc4)cc3)nc2c1,≤ 0.06,0.25,> 32,0.25,0.12,1,1,0.12,0.5,0.5,0.12,0.12
CC(C)NC(=N)c1ccc2[nH]c(-c3ccc(Oc4ccc(-c5nc6cc(C(=N)NC(C)C)ccc6[nH]5)cc4)cc3)nc2c1,< 0.06,0.12,2,< 0.06,< 0.06,0.5,0.25,< 0.06,0.5,0.12,< 0.06,< 0.06
CC(C)NC(=N)c1ccc2[nH]c(-c3ccc(Cc4ccc(-c5nc6cc(C(=N)NC(C)C)ccc6[nH]5)cc4)cc3)nc2c1,0.12,0.25,1,0.25,0.25,1,1,< 0.06,1,0.25,0.12,0.25
CC(C)NC(=N)c1ccc2[nH]c(-c3ccc4c(c3)Cc3ccc(-c5nc6cc(C(=N)NC(C)C)ccc6[nH]5)cc3S4)nc2c1,0.5,16,> 32,1,0.5,0.5,16,0.12,8,2,2,1
CC(C)NC(=N)c1ccc2[nH]c(-c3ccc(Nc4ccc(-c5nc6cc(C(=N)NC(C)C)ccc6[nH]5)cc4)cc3)nc2c1,0.12,0.25,> 32,0.12,0.25,2,0.25,0.12,0.25,0.25,0.12,0.12
CC(C)NC(=N)c1ccc2[nH]c(-c3ccc(N(c4ccccc4)c4ccc(-c5nc6cc(C(=N)NC(C)C)ccc6[nH]5)cc4)cc3)nc2c1,0.12,0.5,4,0.12,0.25,1,1,0.12,0.5,0.5,0.25,≤ 0.06
O=C(O)c1cn(C2CC2)c2cc(N3CCNCC3)c(F)cc2c1=O [CIPROFLOXACIN],> 32,0.5,0.5,≤ 0.12,≤ 0.12,,0.5,,8,≤ 0.12,≤ 0.12,≤ 0.12
CN[C@H](CC(C)C)C(=O)N[C@H]1C(=O)N[C@@H](CC(N)=O)C(=O)N[C@H]2C(=O)N[C@H]3C(=O)N[C@H](C(=O)N[C@H](C(=O)O)c4cc(O)cc(O)c4-c4cc3ccc4O)[C@H](O)c3ccc(c(Cl)c3)Oc3cc2cc(c3O[C@@H]2O[C@H](CO)[C@@H](O)[C@H](O)[C@H]2O[C@H]2C[C@](C)(N)[C@H](O)[C@H](C)O2)Oc2ccc(cc2Cl)[C@H]1O [VANCOMYCIN],> 64,> 32,4,,,0.12,,1,,,,0.12
CC(C)NC(=N)c1ccc2[nH]c(-c3ccc(CCc4ccc(-c5nc6cc(C(=N)NC(C)C)ccc6[nH]5)cc4)cc3)nc2c1,0.12,0.25,0.5,0.12,0.12,0.25,0.25,< 0.06,0.5,0.25,< 0.06,0.12
CC(C)NC(=N)c1ccc2[nH]c(-c3ccc(Sc4ccc(-c5nc6cc(C(=N)NC(C)C)ccc6[nH]5)cc4)cc3)nc2c1,16,> 32,> 32,8,16,> 32,> 32,> 32,32,16,8,16
CC(C)NC(=N)c1ccc2[nH]c(-c3ccc(/C=C/c4ccc(-c5nc6cc(C(=N)NC(C)C)ccc6[nH]5)cc4)cc3)nc2c1,0.25,0.5,0.5,0.25,0.25,0.5,1,0.25,1,0.5,0.12,0.25
CC(C)NC(=N)c1ccc2[nH]c(-c3ccc(NS(=O)(=O)c4ccc(-c5nc6cc(C(=N)NC(C)C)ccc6[nH]5)cc4)cc3)nc2c1,4,2,2,2,4,4,> 32,1,16,16,2,2
CC1(C)S[C@@H]2[C@H](NC(=O)Cc3ccccc3)C(=O)N2[C@H]1C(=O)O [PENICILLIN G],> 32,4,4,> 4,32,≤ 0.12,1,< 0.06,> 32,> 32,32,< 0.06
CC(C)NC(=N)c1ccc2[nH]c(-c3ccc(-c4ccc(-c5ccc(-c6nc7cc(C(=N)NC(C)C)ccc7[nH]6)cc5)o4)cc3)nc2c1,2,> 32,> 32,2,2,1,> 32,0.12,32,2,4,2
